In patent US20250179094A1, “TGF-B INHIBITOR COMPOUND AND USE THEREOF” (Medinno Pharmaceutical Technology (Zhuhai) Co., Ltd., priority 2022, published 2025) one finds IC50 data, which are given here for 18 compounds.

Structures are written as SMILES. pIC50: −log10 of the molar value.

The target in the test is human TGFβR1 (Homo sapiens (Human), UniProt P36897). As to the kind of experiment: TGFβR1 kinase activity assay (ADP-Glo method). The class given is biochemical. Particulars: ATP 5 uM, TGFβR1tide substrate, 60 minutes at room temperature. On the procedure:
The principle of the activity assay was that TGFβR1 phosphorylates the substrate TGFβR1tide, consuming ATP in the process. […] The specific experimental steps were as follows. Compounds were diluted 4-fold in DMSO in a dilution plate, with the final starting concentration of the compounds being 10 μM, across 10 concentration gradient points. The compounds were then further diluted 50-fold into the kinase reaction buffer and incubated on a shaker for 20 minutes. Kinase was formulated with an enzyme reaction buffer. 2 μl kinase was added to each well of the reaction plate. 1 μl of the compound diluted in buffer was added to each well, and then the plate was sealed with a sealing membrane and centrifuged at 1000 g for 30 seconds, leaving it at room temperature for 10 minutes. Solutions of TGFβR1tide and ATP were prepared with the kinase reaction buffer, and 2 μL of the TGFβR1tide/ATP solution was added to the reaction plate. The plate was sealed with a sealing film and centrifuged at 1000 g for 30 seconds. It was allowed to react at room temperature for 60 minutes. Subsequently, 4 μL of ADP-Glo was transferred to a 384-well reaction plate and centrifuged at 1000 rpm/min for 1 minute, followed by incubation at 25° C. for 40 minutes. Then, 8 μL of Detection solution was transferred to the 384-well reaction plate and centrifuged at 1000 rpm/min for 1 minute, after which it was incubated at 25° C. for 40 minutes. The RLU (Relative Luminescence Unit) signal was read using a BMG microplate reader, which was used to characterize the degree of kinase activity.
3.1 The inhibition rate was calculated as follows: inhibition rate of compound (% inh)=100%−(compound−positive control)/(negative control−positive control)*100%.
The IC50 (half inhibition concentration) of a compound was obtained using the following non-linear fitting equation, wherein data analysis was performed using Graphpad 7.0 software.
X: log value of compound concentration; and Y: inhibition rate (% inhibition)
A general note: In ADP-Glo the light output rises with the ADP produced.

human TGFβR1, sequence (P36897 34-503): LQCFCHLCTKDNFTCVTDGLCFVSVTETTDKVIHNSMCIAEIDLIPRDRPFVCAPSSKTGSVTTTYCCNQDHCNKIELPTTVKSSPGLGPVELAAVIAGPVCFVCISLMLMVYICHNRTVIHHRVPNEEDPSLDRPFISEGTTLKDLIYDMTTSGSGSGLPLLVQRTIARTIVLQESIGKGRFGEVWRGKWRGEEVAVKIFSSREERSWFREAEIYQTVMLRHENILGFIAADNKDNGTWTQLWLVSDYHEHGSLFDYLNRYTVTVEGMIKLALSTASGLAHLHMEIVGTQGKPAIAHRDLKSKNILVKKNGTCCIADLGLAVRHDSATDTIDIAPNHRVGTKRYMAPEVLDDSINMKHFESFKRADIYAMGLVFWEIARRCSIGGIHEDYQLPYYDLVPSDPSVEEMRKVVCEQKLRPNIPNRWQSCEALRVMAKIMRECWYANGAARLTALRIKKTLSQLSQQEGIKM

With `CC(=O)N1Cc2nc(-c3cc(-c4c(-c5cccc(C)n5)nc5n4CCC5)ccn3)[nH]c2C1` [Compound 1, 1-(2-(4-(2-(6-methylpyridin-2-yl)-6,7-dihydro-5H-pyrrolo[1,2-a]imidazol-3-yl)pyridin-2-yl)-4,6-dihydropyrrolo[3,4-d]imidazol-5(1H)-yl)ethan-1-one], the pIC50 (in general, the negative decadic logarithm of the IC50, by convention in mol/L) was 7.68.

As for `CNC(=O)N1Cc2nc(-c3cc(-c4c(-c5cccc(C)n5)nc5n4CCC5)ccn3)[nH]c2C1` [Compound 28], the pIC50 was 7.72. The pIC50 values of the last two compounds are within 0.2 log units of each other.

Compound `CCn1cc(-c2ccnc(-c3nc4c([nH]3)CN(C(=O)N(C)C)C4)c2)c(-c2cccc(C)n2)n1` [Compound 60, 2-(4-(1-Ethyl-3-(6-methylpyridin-2-yl)-1H-pyrazol-4-yl)pyridin-2-yl)-N,N-dimethyl-4,6-dihydropyrrolo[3,4-d]imidazol-5(1H)-carboxamide] showed a pIC50 of 8.74. This pIC50 is 1.02 log units higher than that of the compound before.

In the case of `CCN(C)C(=O)N1Cc2nc(-c3cc(-c4c(-c5cccc(C)n5)nn5c4CCC5)ccn3)[nH]c2C1` [Compound 74, N-Ethyl-N-methyl-2-(4-(2-(6-methylpyridin-2-yl)-5,6-dihydro-4H-pyrrolo[1,2-b]pyrazol-3-yl)pyridin-2-yl)-4,6-dihydropyrrolo[3,4-d]imidazole-5(1H)-carboxamide], the pIC50 is 8.77.

In the case of `Cc1cccc(-c2nn(Cc3ccncc3)cc2-c2ccnc(-c3nc4c([nH]3)CN(S(C)(=O)=O)C4)c2)n1` [Compound 55, 2-[4-(3-(6-Methylpyridin-2-yl)-1-(pyridin-4-ylmethyl)-1H-pyrazol-4-yl)pyridin-2-yl]-5-(methylsulfonyl)-1,4,5,6-tetrahydropyrrolo[3,4-d]imidazole], the pIC50 is 8.30.

Consider `Cc1cccc(-c2nc3n(c2-c2ccnc(-c4nc5c([nH]4)CN(CC(C)O)C5)c2)CCC3)n1` (stereo not drawn) [Compound 12, 1-(2-(4-(2-(6-Methylpyridin-2-yl)-6,7-dihydro-5H-pyrrolo[1,2-a]imidazol-3-yl)pyridin-2-yl)-4,6-dihydropyrrolo[3,4-d]imidazol-5(1H)-yl)propan-2-ol], for which the pIC50 is 8.37.

`CCS(=O)(=O)N1Cc2nc(-c3cc(-c4c(-c5cccc(C)n5)nn5c4CCC5)ccn3)[nH]c2C1` [Compound 68] had a pIC50 of 8.09.

In turn, `Cc1cccc(-c2nn3c(c2-c2ccnc(-c4nc5c([nH]4)CN(C(=O)C4CCN(C)CC4)C5)c2)CCC3)n1` [Compound 73, (1-Methylpiperidin-4-yl)(2-(4-(2-(6-methylpyridin-2-yl)-5,6-dihydro-4H-pyrrolo[1,2-b]pyrazol-3-yl)pyridin-2-yl)-4,6-dihydropyrrolo[3,4-d]imidazol-5(1H)-yl)ketone] gave a pIC50 of 8.55.

Take `Cc1cccc(-c2nn(CC(C)O)cc2-c2ccnc(-c3nc4c([nH]3)CNC4)c2)n1` (stereo not drawn) [Compound 44, 3-(3-(6-Methylpyridin-2-yl)-4-(2-(1,4,5,6-tetrahydropyrrolo[3,4-d]imidazol-2-yl)pyridin-4-yl)-1H-pyrazol-1-yl)propan-2-ol]: the pIC50 was 8.21. This pIC50 lies 0.34 log units lower than the previous one.

For the compound `Cc1cccc(-c2nc3n(c2-c2ccnc(-c4nc5c([nH]4)CN(S(C)(=O)=O)C5)c2)CCC3)n1` [Compound 9, 2-(4-(2-(6-Methylpyridin-2-yl)-6,7-dihydro-5H-pyrrolo[1,2-a]imidazol-3-yl)pyridin-2-yl)-5-(methylsulfonyl)-1,4,5,6-tetrahydropyrrolo[3,4-d]imidazole], the pIC50 is 8.27.

For `Cc1cccc(-c2nc3n(c2-c2ccnc(-c4nc5c([nH]4)CN(S(C)(=O)=O)CC5)c2)CCC3)n1` [Compound 63, 2-(4-(2-(6-methylpyridin-2-yl)-6,7-dihydro-5H-pyrrolo[1,2-a]imidazol-3-yl)pyridin-2-yl)-5-(methylsulfonyl)-4,5,6,7-tetrahydro-3H-imidazolo[4,5-c]pyridine], the negative-log IC50 (pIC50) was 8.80.

Regarding `Cc1cccc(-c2nn3c(c2-c2ccnc(-c4nc5c([nH]4)CN(S(C)(=O)=O)C5)c2)CCC3)n1` [Compound 66, 2-(4-(2-(6-Methylpyridin-2-yl)-5,6-dihydro-4H-pyrrolo[1,2-b]pyrazol-3-yl)pyridin-2-yl)-5-(methylsulfonyl)-1,4,5,6-tetrahydropyrrolo[3,4-d]imidazole], the pIC50 was 8.40. This pIC50 is 0.40 log units lower than that of the compound before.

In turn, `Cc1cccc(-c2nc3n(c2-c2ccnc(-c4nc5c([nH]4)CN(C4CCN(C)CC4)C5)c2)CCC3)n1` [Compound 13, 5-(1-Methylpiperidin-4-yl)-2-(4-(2-(6-methylpyridin-2-yl)-6,7-dihydro-5H-pyrrolo[1,2-a]imidazol-3-yl)pyridin-2-yl)-1,4,5,6-tetrahydropyrrolo[3,4-d]imidazole] had a pIC50 of 7.92.

With `Cc1cccc(-c2nn3c(c2-c2ccnc(-c4nc5c([nH]4)CN(C(=O)C4CC(O)C4)C5)c2)CCC3)n1` (stereo not drawn) [Compound 65, (3-Hydroxycyclobutyl)(2-(4-(2-(6-methylpyridin-2-yl)-5,6-dihydro-4H-pyrrolo[1,2-b]pyrazol-3-yl)pyridin-2-yl)-4,6-dihydropyrrolo[3,4-d]imidazol-5(1H)-yl)ketone], the pIC50 is 9.15.

As for `Cc1cccc(-c2nc3n(c2-c2ccnc(-c4nc5c([nH]4)CN(C(=O)c4cnn(C)c4)C5)c2)CCC3)n1` [Compound 11, (1-Methyl-1H-pyrazol-4-yl)(2-(4-(2-(6-methylpyridin-2-yl)-6,7-dihydro-5H-pyrrolo[1,2-a]imidazol-3-yl)pyridin-2-yl)-4,6-dihydropyrrolo[3,4-d]imidazol-5(1H)-yl)ketone], the pIC50 was 7.94. This pIC50 lies 1.21 log units lower than the previous one.

Take `Cc1cccc(-c2nn(Cc3ccccn3)cc2-c2ccnc(-c3nc4c([nH]3)CN(S(C)(=O)=O)C4)c2)n1` [Compound 53, 2-[4-(3-(6-Methylpyridin-2-yl)-1-(pyridin-2-ylmethyl)-1H-pyrazol-4-yl)pyridin-2-yl]-5-(methylsulfonyl)-1,4,5,6-tetrahydropyrrolo[3,4-d]imidazole]: the pIC50 was 8.60.

`Cc1cccc(-c2nn(Cc3cccnc3)cc2-c2ccnc(-c3nc4c([nH]3)CN(S(C)(=O)=O)C4)c2)n1` [Compound 54, 2-[4-(3-(6-Methylpyridin-2-yl)-1-(pyridin-3-ylmethyl)-1H-pyrazol-4-yl)pyridin-2-yl]-5-(methylsulfonyl)-1,4,5,6-tetrahydropyrrolo[3,4-d]imidazole] had a pIC50 of 8.85.

Compound `COC(=O)N1Cc2nc(-c3cc(-c4c(-c5cccc(C)n5)nc5n4CCC5)ccn3)[nH]c2C1` [Compound 30, Methyl 2-(4-(2-(6-Methylpyridin-2-yl)-6,7-dihydro-5H-pyrrolo[1,2-alimidazol-3-yl)pyridin-2-yl)-4,6-dihydropyrrolo[3,4-d]imidazol-5(1H)-carboxylate] showed a pIC50 of 8.24.
